Experimental data as given in patent US5736629A, “Herbicide resistant rice” (priority 1997, dated 1998).

Assays:
[1] = target: T1, AHAS (acetohydroxyacid synthase) in enzyme extracts from rice line ATCC 75295 (Oryza sativa subsp. japonica, UniProt Q6K2E8); test: AHAS enzyme assay, extract from rice line ATCC 75295; type: biochemical
T1 construct: 40.0 grams (fresh weight) of tissue were extracted in the same manner for each of the three varieties; from tissue; host or cells: stem tissue of greenhouse-grown rice seedlings, line ATCC 75295 (leaf blades removed)
T1 sequence (Q6K2E8 40-644 limits assumed): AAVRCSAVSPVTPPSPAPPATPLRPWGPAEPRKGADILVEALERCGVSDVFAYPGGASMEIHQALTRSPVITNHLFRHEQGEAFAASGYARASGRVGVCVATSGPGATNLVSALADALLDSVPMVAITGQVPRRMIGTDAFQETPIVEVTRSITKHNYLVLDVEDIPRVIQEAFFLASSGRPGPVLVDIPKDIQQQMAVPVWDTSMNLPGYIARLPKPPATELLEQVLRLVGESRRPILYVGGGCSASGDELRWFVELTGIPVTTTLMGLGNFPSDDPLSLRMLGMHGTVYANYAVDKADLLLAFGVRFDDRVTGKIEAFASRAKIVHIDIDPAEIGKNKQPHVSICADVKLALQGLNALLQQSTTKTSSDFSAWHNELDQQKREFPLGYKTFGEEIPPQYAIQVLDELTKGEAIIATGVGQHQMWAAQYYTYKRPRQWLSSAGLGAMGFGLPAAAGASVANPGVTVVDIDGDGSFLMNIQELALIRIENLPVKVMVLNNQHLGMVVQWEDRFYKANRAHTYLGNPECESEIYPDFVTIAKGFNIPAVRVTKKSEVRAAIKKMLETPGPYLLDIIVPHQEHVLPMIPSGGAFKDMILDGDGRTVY
Source text: The herbicide resistance of the AHAS enzyme from the ATCC 75295 rice line was compared to the resistance of the AHAS enzymes from the rice varieties "Lemont" and "Mercury," the varieties that were the ancestors of this rice line. The procedures used to assay the activity of acetohydroxyacid synthase were substantially as described in B. K. Singh et al., "Assay of Acetohydroxyacid Synthase," Analytical Biochemistry, vol. 171, pp. 173-179 (1988), except as noted. In the first paragraph of Singh's "Materials and Methods," instead of corn suspension culture cells, stem tissues from greenhouse-grown rice seedlings at the four-leaf stage of development were used. Leaf blades were removed, and 40.0 grams (fresh weight) of tissue were extracted in the same manner for each of the three varieties. […] Pursuit herbicide (imazethapyr) was included in the "standard reaction mixture" for the AHAS assay in the concentrations indicated in Table 1 below. Checks were made of direct acetoin formation during the enzyme assay. Each treatment was conducted with two replicates.

[2] = system: Non-Resistant Control rice plants (check varieties); test: Greenhouse test of plant vigor after imazethapyr, non-resistant controls; type: in vivo; conditions: for Rating of rice plant vigor: 36 days after treatment at 2-3 leaf stage, 10-point scale, 0 = dead plant, 10 = no visible injury
Source text: In the greenhouse tests, pots were planted with F3 seed from crosses between the two lines. Each pot was planted with seed from a single panicle from a single plant; each pot was therefore the equivalent of a headrow. A total of 140 pots were planted in this manner, along with 40 pots of various non-resistant genotypes for comparison. Imazethapyr was applied at the 2-3 leaf stage two weeks after planting, at rates equivalent to 0.063 lb. active ingredient (a.i.) per acre, 0.125 lb. a.i./acre, and 0.313 lb. a.i./acre.
Table 2 summarizes measurements taken 36 days after spraying rice at the 2-3 leaf stage of development.

[3] = system: ATCC 75295 rice line; test: Field plot test with AHAS-inhibiting herbicides, ATCC 75295; type: in vivo
Procedure: The resistance of these plants to several other AHAS-inhibiting herbicides was also tested. Nine-foot-long field plots were planted with seven rows of rice per plot. The test included nine check rice varieties, and the ATCC 75295 rice line. A shielded spray boom was used to apply herbicide, spraying six of the seven rows in each plot. The four herbicides used were Pursuit (imazethapyr: (±)-2-[4,5-dihydro-4-methyl-4-(1-methylethyl)-5-oxo-1H-imidazol-2-yl]-5-ethyl-3-pyridinecarboxylic acid); Scepter (imazaquin: 2-[4,5-dihydro-4-methyl-4-(1-methylethyl)-5-oxo-1H-imidazol-2-yl]-3-quinolinecarboxylic acid); Accent (nicosulfuron: 2-(((((4,6-dimethoxypyrimidin-2-yl)aminocarbonyl)) aminosulfonyl))-N,N-dimethyl-3-pyridinecarboxamide); and Beacon (primisulfuron: 3-[4,6-bis(difluoromethoxy)-pyrimidin-2-yl]-1-(2-methoxycarbonylphenylsulfonyl)urea). The herbicides were applied to two replicate plots for each herbicide when the rice was at the three-leaf stage of maturity. Two replicate plots of each check variety and of the resistant line were left unsprayed as controls. The Accent treatment used 0.67 ounce of product (0.50 ounce active ingredient) per acre, with 0.25% nonionic surfactant. The Pursuit treatment used four ounces of product (1.00 ounce active ingredient) per acre, with 0.25% nonionic surfactant. The Scepter treatment used one pint of product (3.00 ounces active ingredient) per acre, with 0.25% nonionic surfactant. The Beacon treatment used 0.76 ounce of product (0.57 ounce active ingredient) per acre, with 0.25% nonionic surfactant. […] A similar test with the same rice varieties and the ATCC 75295 line was conducted at the five-leaf stage of development (i.e., plants fifteen days older than in the test described above), using Accent and Pursuit at the rates given above. […] The ATCC 75295 line was resistant only when herbicide was applied post-emergence.

For `CCc1cnc(C2=NC(C)(C(C)C)C(=O)N2)c(C(=O)O)c1` (racemic) [imazethapyr, (±)-2-[4,5-dihydro-4-methyl-4-(1-methylethyl)-5-oxo-1H-imidazol-2-yl]-5-ethyl-3-pyridinecarboxylic acid], the activity at 0.1 µM ([1]; imazethapyr 0.1 μM) was 102%, the activity at 1 µM ([1]; imazethapyr 1 μM) was 89% and the activity at 10 µM ([1]; imazethapyr 10 μM) was 61%. The activity at 100 µM ([1]; imazethapyr 100 μM) was 48%, the “Rating of rice plant vigor” value ([2]; 0.063 lb. a.i./acre) was 0.33 ± 0.18 and the “Rating of rice plant vigor” value ([2]; 0.125 lb. a.i./acre) was 0.12 ± 0.06. For the same compound, the “Rating of rice plant vigor” value ([2]; 0.313 lb. a.i./acre) was 0.15 ± 0.15, the Mortality ([2]; check varieties, all treatments (0.063, 0.125, 0.313 lb. a.i./acre)) was 100% and the “Effect on plants (in words)” value ([2]; non-resistant rice, 0.063 pounds active ingredient per acre) was “completely killed”. The “Effect on plants (in words)” value ([2]; nonresistant controls, each of the nonzero rates (0.063, 0.125, 0.313 lb. a.i./acre)) was “killed”, the “Resistance of the rice line (in words)” value ([3]; five-leaf stage (plants fifteen days older), same rates as in the three-leaf test) was “good resistance” and the “Resistance of the rice line (in words)” value ([3]; three-leaf stage, per acre a.i.: Accent 0.50 ounce, Pursuit 1.00 ounce, Scepter 3.00 ounces, Beacon 0.57 ounce, 0.25% nonionic surfactant) was “good resistance”.
